These results are taken from publication PMC12756740, “A GH42 β‑Galactosidase from the Human Isolate Bifidobacterium breve DSM 20213: Biochemical and Transgalactosylation Properties Reveal the Potential for Galacto-oligosaccharides Synthesis” (ACS Omega, 2025).

For the test, the target named is T1, Bbreβgal-III (Bifidobacterium breve, UniProt D4BMY8).
T1 construct: gene BIFBRE_03435; pET21a(+) NdeI/NotI, His-tagged, E. coli BL21 Star (DE3), IMAC purified
Nature of the test: o-nitrophenol release at […] nm, nonlinear fit with substrate inhibition model. As to conditions: substrate inhibition constant; 50 mM sodium phosphate pH 6.5, 30 °C. It counts as biochemical.

T1 sequence (D4BMY8 1-691): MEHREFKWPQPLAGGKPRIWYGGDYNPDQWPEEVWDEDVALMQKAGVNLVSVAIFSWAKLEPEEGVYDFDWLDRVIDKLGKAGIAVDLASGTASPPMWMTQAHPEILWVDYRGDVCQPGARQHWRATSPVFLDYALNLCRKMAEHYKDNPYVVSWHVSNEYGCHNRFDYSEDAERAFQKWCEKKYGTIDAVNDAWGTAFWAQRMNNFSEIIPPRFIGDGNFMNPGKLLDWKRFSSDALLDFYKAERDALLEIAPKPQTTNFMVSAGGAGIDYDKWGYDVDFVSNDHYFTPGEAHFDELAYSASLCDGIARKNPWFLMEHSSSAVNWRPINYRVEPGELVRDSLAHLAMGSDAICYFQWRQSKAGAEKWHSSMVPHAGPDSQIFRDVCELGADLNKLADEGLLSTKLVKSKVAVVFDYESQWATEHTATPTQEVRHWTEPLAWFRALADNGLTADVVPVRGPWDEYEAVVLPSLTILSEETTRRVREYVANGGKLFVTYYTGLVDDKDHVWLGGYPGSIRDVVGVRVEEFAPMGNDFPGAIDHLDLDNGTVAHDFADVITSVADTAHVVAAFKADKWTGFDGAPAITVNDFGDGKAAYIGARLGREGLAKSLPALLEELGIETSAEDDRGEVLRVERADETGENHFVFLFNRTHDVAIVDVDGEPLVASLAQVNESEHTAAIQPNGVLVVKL

On to `O=[N+]([O-])c1ccccc1O[C@@H]1O[C@H](CO)[C@H](O)[C@H](O)[C@H]1O` [o-nitrophenyl-β-D-galactopyranoside], for which the “k i,S” value worked out at 13.84 ± 1.57 mM.
